Laboratory results from patent US4576760A, “Hydroquinone sulfate derivatives and production thereof” (Takeda Chemical Industries, Ltd., priority 1983, dated 1986).

Columns and labels:
[1] = test system: peroxidation of lipids; experiment: Inhibition rate of peroxidation of lipids (method of Kornbrust and Mavis; malondialdehyde formed in homogenized rat livers with NADPH/Fe++); assay type: biochemical; details: homogenized livers of rats
Protocol: In accordance with the method of Kornbrust and Mavis [Mol. Pharm., 17, 400 (1980)], inhibition rate of peroxidation of lipids was determined.
Note*: Homogenized livers of rats were incubated in the presence of
NADPH/Fe^++. The amounts of malondialdehyde formed due to the
peroxidation of lipids were compared.

[2] = test system: cAMP phosphodiesterase; experiment: Action of inhibiting cAMP phosphodiesterase (method of Butcher and Sutherland; inorganic phosphoric acid produced from cyclic AMP); assay type: biochemical; details: phosphodiesterase from beef heart and 5'-nucleotidase
Protocol: In accordance with the method of Butcher and Sutherland [J. Biol. Chem., 237, 1244 (1962)], the action of inhibiting cAMP phosphodiesterase was determined.
**Amounts of inorganic phosphoric acid produced by decomposition of cycli
AMP with phosphodiesterase from beef heart and 5nucleotidase.

Inhibition rate of phosphodiesterase ([2]; 1 × 10^-3 M): 89% | Inhibition rate of phosphodiesterase ([2]; 5 × 10^-4 M): 70%
Compound: COc1c(O)c(C)c(CCCCCCCCCCO)c(OS(=O)(=O)O)c1OC [6-(10-hydroxydecyl)-2,3-dimethoxy-5-methylhydroquinone 1-sulfate]
Inhibition Rate of Peroxidation of Lipids ([1]; 1 × 10^-4 M): 59% | Inhibition Rate of Peroxidation of Lipids ([1]; 1 × 10^-5 M): 28%
